For this assay, the target named is recombinant human PI3Kγ (Homo sapiens (Human), UniProt P48736). Nature of the assay: Inhibitory activity on PI3K kinase (ADP-Glo Kinase Assay). It is filed as biochemical. From the text: The following method is used to determine the degree of inhibition of recombinant human PI3Kα, PI3Kβ, PI3Kγ and PI3Kδ kinase activity by the compounds of the present invention under in vitro conditions. Promega's ADP-Glo Kinase Assay Kit (Cat. No. V9102) was used in this method. The above kit was a luminescence kinase detection kit, which was used to detect the ADP content produced by the kinase reaction. The ADP content was positively correlated with the kinase activity. By measuring the ADP content, the inhibition of the compound on the activity of PI3Kα, PI3Kβ, PI3Kγ and PI3Kδ kinases was reflected. For detailed experimental operations, please refer to the kit instructions. Recombinant human PI3Kα, PI3Kγ, and PI3Kδ were purchased from Invitrogen, and PI3Kβ was purchased from Promega (category numbers were PI3Kα: PV4788; PI3Kβ: V1751; PI3Kγ: PV4786 and PI3Kδ: PV6451 separately).
Background: In ADP-Glo the light output rises with the ADP produced.

Structures are written as SMILES. pIC50: −log10 of the molar value.

Chain of recombinant human PI3Kγ (P48736 whole entry): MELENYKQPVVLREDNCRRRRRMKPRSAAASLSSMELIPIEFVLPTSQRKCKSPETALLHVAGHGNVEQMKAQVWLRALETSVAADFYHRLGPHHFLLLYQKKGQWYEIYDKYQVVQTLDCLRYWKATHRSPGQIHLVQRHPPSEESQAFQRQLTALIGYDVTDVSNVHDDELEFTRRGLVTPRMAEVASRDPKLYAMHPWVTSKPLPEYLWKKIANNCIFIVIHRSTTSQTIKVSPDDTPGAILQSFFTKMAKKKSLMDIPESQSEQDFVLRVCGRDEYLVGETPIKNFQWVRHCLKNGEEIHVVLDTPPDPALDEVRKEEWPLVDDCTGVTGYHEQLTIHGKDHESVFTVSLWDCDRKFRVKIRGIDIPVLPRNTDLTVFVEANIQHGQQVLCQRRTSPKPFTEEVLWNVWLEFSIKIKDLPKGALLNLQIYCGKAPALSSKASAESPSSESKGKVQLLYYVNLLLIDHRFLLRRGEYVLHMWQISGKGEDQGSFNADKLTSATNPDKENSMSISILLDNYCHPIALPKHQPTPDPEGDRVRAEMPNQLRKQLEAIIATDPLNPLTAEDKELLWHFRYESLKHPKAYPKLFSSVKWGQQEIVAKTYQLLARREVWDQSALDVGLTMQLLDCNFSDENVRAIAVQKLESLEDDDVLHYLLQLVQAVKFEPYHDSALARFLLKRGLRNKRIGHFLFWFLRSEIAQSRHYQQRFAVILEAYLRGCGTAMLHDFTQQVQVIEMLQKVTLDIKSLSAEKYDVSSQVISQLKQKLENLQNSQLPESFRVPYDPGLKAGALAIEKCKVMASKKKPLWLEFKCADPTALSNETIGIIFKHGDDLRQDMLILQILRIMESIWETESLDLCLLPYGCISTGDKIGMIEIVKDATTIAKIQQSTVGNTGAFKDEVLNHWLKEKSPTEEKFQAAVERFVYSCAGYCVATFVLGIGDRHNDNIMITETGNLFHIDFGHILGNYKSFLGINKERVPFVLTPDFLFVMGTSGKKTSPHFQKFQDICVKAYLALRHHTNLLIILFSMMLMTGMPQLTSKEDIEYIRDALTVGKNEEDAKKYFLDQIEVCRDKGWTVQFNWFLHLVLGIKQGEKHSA

By pIC50 is commonly meant the negative decadic logarithm of the IC50, by convention in mol/L. As for `C[C@H](NC(=O)c1c(N)nn2cccnc12)c1nc2cccc(C#Cc3cnn(C4CC4)c3)c2c(=O)n1-c1ccccc1` [Example 2, (S)-2-amino-N-(1-(5-((1-cyclopropyl-1H-pyrazol-4-yl)ethynyl)-4-oxo-3-phenyl-3,4-dihydroquinazolin-2-yl)ethyl)pyrazolo[1,5-a]pyrimidine-3-carboxamide], where the note is “ADP-Glo, ATP 10 μM”, the negative logarithm of the IC50 (pIC50) is 9.24. For the same compound, the “IC50 (PI3Kα)/IC50(PI3Kγ)” value (kinase selectivity for PI3Kγ over PI3Kα) is 370. Under “kinase selectivity for PI3Kγ over PI3Kβ”, the “IC50 (PI3Kβ)/IC50(PI3Kγ)” value was found to be 804. For the same compound, the “IC50 (PI3Kδ)/IC50(PI3Kγ)” value (kinase selectivity for PI3Kγ over PI3Kδ) was 330.
